Measurements as given in patent publication US20220249596A1, “PIC1 PEPTIDE COMPOSITIONS AND METHODS OF USE THEREOF FOR TREATMENT OF HYPOXIC ISCHEMIC ENCEPHALOPATHY” (REALTA HOLDINGS, LLC, priority 2019, published 2022).
No end group written: not given here.

Tests used:
Assay type in all cases: in vivo, rat
C5aR = assay: Whole brain C5aR expression, Western blotting and immunofluorescence; conditions: NT versus PIC1-treated groups
Method: After blocking for one hour at room temperature, tissues were incubated with 1:300 goat anti-Iba1 (Abcam), 1:250 goat anti-GFAP (Abcam), 1:500 chicken anti-NeuN (Millipore, Billerica, Mass.), or 1:100 mouse anti-NeuN (Millipore) in host appropriate blocking serum overnight at 4° C. Primary antibodies were probed with 1:500 donkey anti-goat (Abcam), goat anti-chicken (Abcam), or goat anti-mouse (Abcam) AF 488 or 568 in appropriate blocking serum for one hour at room temperature. Tissues were blocked a second time with NGS for one hour at room temperature. Samples were then probed with 1:300 mouse anti-C1q (Abcam), 1:300 rabbit anti-C9, 1:50 rabbit anti-MPO (Abcam), 1:200 rabbit anti-TMEM (Novus Bio, Centennial, Colo.), 1:100 rabbit anti-C3aR (Bioss), 1:100 Mouse anti-C5aR (Hycult), or 1:200 chicken anti-C3/C3a (Abcam) in NGS overnight at 4° C. and then with 1:500 goat anti-mouse, rabbit, or chicken (Abcam) AF 488 or 568 in NGS for one hour at room temperature.
Without wishing to be bound by theory, C3a is generated at the convergence of all known complement activation pathways (i.e., the classical, alternate and lectin pathways). To investigate further, C3aR levels in the brain were measured by Western blotting and immunofluorescence (FIG. 5). Western blotting was performed as follows. […]

C5a = assay: Systemic C5a level in plasma, fluorescent immunoassay; conditions: 12 and 24 hours after initial insult, P<0.05; persisted to 48 hours
Method: The local and systemic effects of NT, HT and PIC1 treatment on the complement cascade were measured. CNS C1q levels and systemic C1q and C5a levels were measured using a fluorescent immunoassay.
Systemic C1q and C5a levels were measured as follows. 100 μl of 1:5 plasma in 1×PBS was added to the wells of a plate described above and incubated overnight at 4° C. The plates were washed 3 times with PBST and blocked with NDS or NGS for one hour. Samples were probed with either 1:50 goat anti-human C1q (Complement Technology) in NDS or 1:200 mouse anti-human C5a (Human Complement Component C5a DuoSet ELISA, R&D Systems, Inc., Minneapolis, Minn.) in NGS for one hour at RT. The wells were washed and 1:500 donkey anti-goat 488 (Life Technologies) in NDS or 1:500 goat anti-mouse AF 568 (Life Technologies) in NGS was added, and incubated for one hour at RT. The wells were washed and the plate read using a Synergy HT (BioTek). Systemic C3a levels in plasma (1:20 dilution) were measured using a standard ELISA, according to the manufacturer's instructions (Rat C3a ELISA Kit, TSZ ELISA, Waltham, Mass.).

[1] = tested on: systemic complement activity; assay: Complement hemolytic assay (sensitized human erythrocytes) with plasma of injected neonatal rats
Method: Complement activity was assayed in plasma after i.p. injection of PIC1 in term-equivalent neonatal rats. At post-natal day 7 (P7; day of birth=P1), the rat brain is histologically similar to that of a 32- to 34-week gestation human fetus or newborn infant, i.e., cerebral cortical neuronal layering is complete, the germinal matrix is involuting, and white matter as yet has undergone little myelination. Hypoxic-ischemic brain damage in the 7-day-old rat pups is induced with unilateral common carotid artery ligation followed by systemic hypoxia produced by the inhalation of 8% oxygen/balance nitrogen, at constant temperature (37° C.) (Vanucci et al. 2005. Dev Neurosci, Vol. 27, pages 81-86).
Timed pregnant Wistar rats (Hilltop Lab Animals Inc., Scottdale, Pa.) were purchased at embryonic day 19, housed individually, and allowed to deliver spontaneously. Pups were randomized on the day of birth to control for the litter effect (10/litter). At P10-12 (term-equivalent), pups were randomly assigned to 4 different treatment groups: no intervention (control), normothermia (NT), hypothermia-treated vehicle controls (HT), and treatment (PIC1). NT and HT animals were injected with the vehicle used to suspend PIC1. Experimental animals underwent unilateral carotid ligation followed by exposure to hypoxia (8% O2/balanced nitrogen, Vannucci model) for 45 minutes. Pups in the HT group were placed in open jars in a temperature controlled chamber set to 28-30° C. to maintain a target rectal temperature of 31-32° C. for 6 hours, while pups in the control, NT, and PIC1 groups were kept in a separate chamber at 37° C. Pups in the PIC1 group were injected with 2 doses of PIC1 (160 mg/kg, i.p.), with the first dose at the time of carotid ligation, and the second dose four hours later. After intervention, pups were placed back with the dam, and harvested at different time points.
Cobra-venom factor (CVF) was injected i.p. into one group of animals to deplete complement activity in vivo 24 hours prior to carotid ligation. On the day of surgery, a group of animals was injected with 160 mg/kg of PIC1 i.p. at the time of carotid ligation. The animals were harvested at 0.5-48 hours after injection, and plasma was collected by cardiac puncture.
Human AB erythrocytes were derived from healthy human volunteers. The erythrocytes were sensitized as described in Bonaparte et al. using rat anti-human glycophorin A IgG (LifeSpan Biosciences, Inc., Seattle, Wash.). Sensitized cells (5×10^7), serum, and GVBS^++ (Veronal-buffered saline, 0.1% gelatin, 0.15 mM CaCl2, and 1.0 mM MgCl) were combined in a total volume of 375 μl , and incubated for 1 hour at 37° C. in borosilicate glass tubes. […] The tubes were centrifuged and the absorbance of the supernatants was measured in a spectrophotometer at 412 nm.

## IALILEPICCQERAA-dPEG24 (cysteine pairing not given here) [PIC1]
C5aR
  expression of C5aR: no significant differences
C5a
  systemic C5a levels, NT animals relative to PIC1-treated animals: significantly higher
[1]; 30 minutes after i.p. injection, 160 mg/kg, plasma
  inhibition of systemic complement activation: 70%
[1]; gradual return after i.p. injection, 160 mg/kg
  return of complement activity to baseline, time after injection: ≤ 8 h
[1]; versus untreated NT animals, P<0.05
  systemic complement inhibition at 0.5, 1, 2 and 4 hours after injection: significant systemic complement inhibition
[1]; versus untreated controls
  complement activity at 8, 16 and 48 hours after injection: comparable to that of untreated controls
